According to US10071996B2, “Optical isomer of 1,4-benzothiazepine-1-oxide derivative, and pharmaceutical composition prepared using same” (AETAS PHARMA CO., LTD., priority 2014, dated 2018):

What was measured:
anaesthetized rat = experiment: Influence on circulatory system (heart rate, blood pressure, max dP/dt, min dP/dt) in anaesthetized rat, continuous intravenous administration; assay type: in vivo; details: hydrochloride salt, i.v. continuous 0.1 mg/kg/minute for 20 minutes, difference vs 0 minute value; for change in the heart rate: FIG. 1; for change in blood pressure: FIG. 2; for change in left ventricular contraction function (max dP/dt): FIG. 3; for change in left ventricular relaxation function (min dP/dt): FIG. 4
Method: Measurement of heart rate, blood pressure, left ventricular contraction function (max dP/dt), and left ventricular relaxation function (min dP/dt)
Test method: In the present test, by using an anaesthetized rat, the influence of the hydrochloride salt of the first optical isomer component (A) and the second optical isomer component (B), each administered intravenously and continuously, on a circulatory system was determined. The test was performed with n=5 for each group. Each of the first component (A) or the second component (B) was continuously administered for 20 minutes at 0.1 mg/kg/minute, and then the measurement of heart rate, blood pressure, max dP/dt, and min dP/dt was performed. Each parameter was measured at 0 minute, 1 minute, 5 minutes, 10 minutes, 15 minutes, 20 minutes, 25 minutes, 30 minutes, 35 minutes, and 40 minutes after the administration, and the result was expressed in terms of a difference compared to the 0 minute value (previous value (i.e., control value)). The measurement value was expressed in terms of mean value±SD.
For the data of FIG. 1 to FIG. 4, determination of a significant difference was carried out by using t test.

anaesthetized beagle dog [1] = experiment: Influence on atrial effective refractory period in anaesthetized beagle dog; assay type: in vivo; details: FIG. 5; for atrial effective refractory period (% change rate vs control value 100%): hydrochloride salt, i.v. 10 minutes at 0.1 mg/kg/minute then 20 minutes at 0.05 mg/kg/minute, pacing interval 250 msec
Method: Influence on Atrial Effective Refractory Period
Test method: In the present test, by using an anaesthetized beagle dog, the influence of hydrochloride salt of the first optical isomer component (A) and the second optical isomer component (B), each administered intravenously and continuously, on atrial effective refractory period was determined. The test was performed with n=5 for each group. The test compound was continuously administered for 10 minutes at 0.1 mg/kg/minute and then for 20 minutes at 0.05 mg/kg/minute. Measurement of atrial effective refractory period till 270 minutes after the termination of the administration was carried out. The pacing interval was 250 msec. The measurement value was expressed in terms of mean value±SD.
Test results: The test results are expressed in terms of % change rate when the previous value (i.e., control value) of atrial effective refractory period is set at 100%.
For the data of FIG. 5, determination of a significant difference was carried out by using t test.

anaesthetized beagle dog [2] = experiment: Influence on ventricular effective refractory period in anaesthetized beagle dog; assay type: in vivo; details: for ventricular effective refractory period (% change rate vs control value 100%): anaesthetized beagle dog, i.v. rapid 5 minutes at 1 mg/kg/minute, measured immediately after administration, pacing interval 250 msec, FIG. 6; for extension of ventricular effective refractory period: beagle dog
Method: Influence on Ventricular Effective Refractory Period Test method: In the present test, by using an anaesthetized beagle dog, the influence of the first optical isomer component (A) and the second optical isomer component (B), each administered intravenously and rapidly, on ventricular effective refractory period was determined. The test was performed with n=5 for each group. The test compound was rapidly administered for 5 minutes at 1 mg/kg/minute. Measurement of ventricular effective refractory period was carried out immediately after the termination of the administration. The pacing interval was 250 msec. The measurement value was expressed in terms of mean value±SD. Test results: The test results are expressed in terms of % change rate when the previous value (i.e., control value) of ventricular effective refractory period is set at 100%.

[3] = Stability of the compound at room temperature; assay type: physicochemical
Solubility in solvents = assay type: physicochemical

Compound | change in the heart rate (anaesthetized rat) | change in blood pressure (anaesthetized rat) | change in left ventricular contraction function (max dP/dt) (anaesthetized rat) | change in left ventricular relaxation function (min dP/dt) (anaesthetized rat) | atrial effective refractory period (% change rate vs control value 100%) (anaesthetized beagle dog [1]) | atrial effective refractory period extension compared with the other enantiomer (anaesthetized beagle dog [1]; same regimen) | ventricular effective refractory period (% change rate vs control value 100%) (anaesthetized beagle dog [2]; 1 mg/kg) | extension of ventricular effective refractory period (anaesthetized beagle dog [2]; amount of up to 8 mg/Kg) | stability to oxygen, humidity, acid, and alkali [3] | solubility in ethanol and dimethyl sulfoxide (DMSO) (Solubility in solvents; free form, amorphous solid) | skin irritating property (Skin irritating property) | extension of ventricular effective refractory period (anaesthetized beagle dog [2]; 1 mg/kg, dose dependent) | solubility in water, ethanol, and dimethyl sulfoxide (Solubility in solvents; oxalate, crystal)
COc1ccc2c(c1)CN(C(=O)CCN1CCC(Cc3ccccc3)CC1)CC[S+]2[O-] (single isomer, unassigned) [first optical isomer component (A), 4-[3-(4-benzylpiperidin-1-yl)propionyl]-7-methoxy-2,3,4,5-tetrahydro-1,4-benzothiazepine-1-oxide] | mildly increased | mildly increased | enhanced | enhanced | extended | longer extension | not extended | does not show any extension |  |  |  |  | 
COc1ccc2c(c1)CN(C(=O)CCN1CCC(Cc3ccccc3)CC1)CC[S+]2[O-] (racemic) [[Ia], 4-[3-(4-benzylpiperidin-1-yl)propionyl]-7-methoxy-2,3,4,5-tetrahydro-1,4-benzothiazepine-1-oxide] |  |  |  |  |  |  |  |  | stable | easily dissolved | has a skin irritating property |  | 
COc1ccc2c(c1)CN(C(=O)CCN1CCC(Cc3ccccc3)CC1)CC[S+]2[O-] (single isomer, unassigned) [second optical isomer component (B), 4-[3-(4-benzylpiperidin-1-yl)propionyl]-7-methoxy-2,3,4,5-tetrahydro-1,4-benzothiazepine-1-oxide] | decreased | decreased | reduced | reduced | extended |  | significantly extended |  |  |  |  | can extend ventricular effective refractory period | 
COc1ccc2c(c1)CN(C(=O)CCN1CCC(Cc3ccccc3)CC1)CC[S+]2[O-] (stereo not shown) [oxalate of the compound [Ia], 4-[3-(4-benzylpiperidin-1-yl)propionyl]-7-methoxy-2,3,4,5-tetrahydro-1,4-benzothiazepine-1-oxide] |  |  |  |  |  |  |  |  |  |  |  |  | soluble
